According to patent US10414811B2, “Protease-resistant lipidated GLP-1 analogs” (MEDIMMUNE LIMITED, priority 2015, dated 2019):
Like-named read-outs stand apart in the source and are kept apart here. Numbered stars: 1 amine (or outer) side, 2 acyl side, 3 side chain; on linkers, the order of the positions; unused ones are H or OH. Square brackets hold non-standard residues; d marks the D form. Side chains are listed from the residue outwards. Peptide text beside a SMILES is read from it. * marks the point of attachment. γGlu = O=C(O)[C@H](CCC(=O)[*:2])N[*:1]; αMeF = C[C@](N)(Cc1ccccc1)C(=O)O; αMeK = C[C@](N)(CCCCN)C(=O)O; Lauroyl = CCCCCCCCCCCC(=O)*; αMeS = C[C@](N)(CO)C(=O)O; AEEA = NCCOCCOCC(=O)O; Aib = CC(C)(N)C(=O)O

What was measured:
Format in all cases: cell-based
Conditions in all cases: tris-lipidated peptides
[1] = target: T1, human GLP-1 receptor (GLP-1R) (Homo sapiens, UniProt P43220); assay: cAMP assay, human GLP-1R cells
T1 construct: expressed in transfected cells
Procedure, shortened: (§1)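 Peptide-stimulated cAMP measured by two-step HTRF after a 30 min room-temperature incubation with receptor-expressing cells (hGLP-1R, hGIPR at 1×10^5 cells/ml; hGCGR at 2×10^5 cells/ml). Duplicate dilutions; EC50 from 4-parameter logistic fit of % Delta F.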

[2] = target: T2, human glucose-dependent insulinotropic peptide receptor (GIPR) (Homo sapiens, UniProt P48546); assay: cAMP assay, human GIPR cells
T2 construct: expressed in transfected cells
T2 sequence (P48546 22-466): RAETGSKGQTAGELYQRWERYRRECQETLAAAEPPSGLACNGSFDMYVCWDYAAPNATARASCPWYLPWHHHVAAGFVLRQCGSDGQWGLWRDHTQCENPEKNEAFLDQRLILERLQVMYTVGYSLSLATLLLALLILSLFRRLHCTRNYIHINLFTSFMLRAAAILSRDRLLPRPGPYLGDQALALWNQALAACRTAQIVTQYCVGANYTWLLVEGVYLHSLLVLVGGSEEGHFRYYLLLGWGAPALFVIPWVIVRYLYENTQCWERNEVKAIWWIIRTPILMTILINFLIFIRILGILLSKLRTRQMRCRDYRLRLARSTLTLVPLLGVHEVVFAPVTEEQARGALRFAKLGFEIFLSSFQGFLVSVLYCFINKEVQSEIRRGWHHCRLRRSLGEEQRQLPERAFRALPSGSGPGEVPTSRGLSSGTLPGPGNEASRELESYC
Procedure, shortened: as §1

GLP-1R (INS1e assay) = target: T3, GLP-1R (INS1e assay) (Rattus norvegicus, UniProt P32301); assay: INS1e assay, cAMP activity at GLP-1R
T3 construct: endogenous in cells; host or cells: INS-1E cells
T3 sequence (P32301 22-463): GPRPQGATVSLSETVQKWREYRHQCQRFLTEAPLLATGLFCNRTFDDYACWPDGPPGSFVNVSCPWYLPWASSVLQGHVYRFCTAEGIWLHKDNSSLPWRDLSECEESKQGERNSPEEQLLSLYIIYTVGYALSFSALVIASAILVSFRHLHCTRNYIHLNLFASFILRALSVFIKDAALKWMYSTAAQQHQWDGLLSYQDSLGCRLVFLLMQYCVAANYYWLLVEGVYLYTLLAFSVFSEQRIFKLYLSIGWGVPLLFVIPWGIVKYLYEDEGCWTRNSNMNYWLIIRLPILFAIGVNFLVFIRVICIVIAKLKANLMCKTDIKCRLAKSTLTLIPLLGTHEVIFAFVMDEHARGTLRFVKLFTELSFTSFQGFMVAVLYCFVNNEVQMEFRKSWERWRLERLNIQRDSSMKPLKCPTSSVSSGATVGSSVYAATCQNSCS
Procedure, shortened: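 cAMP was quantified by two-step HTRF, using anti-cAMP cryptate donor and cAMP-d2 acceptor, each diluted 1/20 in conjugate and lysis buffer. EC50 values of the synthetic peptides were derived from the cAMP readout.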

[3] = target: T4, human glucagon receptor (GCGR) (Homo sapiens, UniProt P47871); assay: cAMP assay, human GCGR cells
T4 construct: expressed in transfected cells
Procedure, shortened: as §1

[4] = mean of n1 and n2, read-out: Primary assay EC50 Mean pM GLP-1R
[5] = replicate n1, read-out: Primary assay EC50 GLP-1R n1
[6] = replicate n2, read-out: Primary assay EC50 GLP-1R n2
[7] = second replicate, read-out: Primary assay EC50 GIP-R (n2)
[8] = mean of n1 and n2, read-out: INS1e assay EC50 Mean pM GLP-1R
[9] = replicate n1, read-out: INS1e assay EC50 GLP-1R n1
[10] = replicate n2, read-out: INS1e assay EC50 GLP-1R n2
[11] = first replicate, read-out: Primary assay EC50 Gluc-R (n1)

T1 sequence (P43220 24-463): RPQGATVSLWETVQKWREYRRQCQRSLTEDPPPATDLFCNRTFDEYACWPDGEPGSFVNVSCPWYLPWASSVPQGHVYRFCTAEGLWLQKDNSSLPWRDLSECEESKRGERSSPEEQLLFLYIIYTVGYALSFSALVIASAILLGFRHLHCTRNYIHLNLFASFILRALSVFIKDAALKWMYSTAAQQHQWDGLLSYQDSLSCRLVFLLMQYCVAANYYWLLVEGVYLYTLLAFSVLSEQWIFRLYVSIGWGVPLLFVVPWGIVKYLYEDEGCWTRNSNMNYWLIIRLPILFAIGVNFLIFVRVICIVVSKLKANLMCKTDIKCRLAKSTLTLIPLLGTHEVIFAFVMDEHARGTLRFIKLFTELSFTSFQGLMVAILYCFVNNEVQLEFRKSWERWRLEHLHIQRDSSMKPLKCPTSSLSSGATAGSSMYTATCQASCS
T4 sequence (P47871 26-477): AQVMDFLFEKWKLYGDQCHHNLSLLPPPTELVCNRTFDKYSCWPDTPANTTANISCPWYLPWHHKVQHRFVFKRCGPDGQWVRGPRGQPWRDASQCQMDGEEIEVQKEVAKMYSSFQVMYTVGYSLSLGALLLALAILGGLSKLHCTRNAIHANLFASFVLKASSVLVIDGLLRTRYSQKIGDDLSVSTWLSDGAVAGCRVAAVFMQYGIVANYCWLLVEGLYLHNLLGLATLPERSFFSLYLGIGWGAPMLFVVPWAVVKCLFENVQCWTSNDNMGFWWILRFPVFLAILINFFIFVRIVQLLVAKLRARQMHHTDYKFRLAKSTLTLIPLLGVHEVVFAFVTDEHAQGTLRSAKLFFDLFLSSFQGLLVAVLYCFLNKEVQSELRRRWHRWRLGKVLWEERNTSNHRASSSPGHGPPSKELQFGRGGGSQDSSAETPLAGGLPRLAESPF

| SMILES | EC50 [1, 4] [pM] | EC50 [1, 5] [pM] | EC50 [1, 6] [pM] | EC50 [2, 7] [nM] | EC50 (GLP-1R (INS1e assay); [8]) [pM] | EC50 (GLP-1R (INS1e assay); [9]) [pM] | EC50 (GLP-1R (INS1e assay); [10]) [pM] | EC50 [3, 11] [nM] | EC50 ([2]; first replicate, read-out: Primary assay EC50 GIP-R (n1)) [nM] | EC50 ([3]; second replicate, read-out: Primary assay EC50 Gluc-R (n2)) [nM] |
| --- | --- | --- | --- | --- | --- | --- | --- | --- | --- | --- |
| CCCCCCCCCCCC(=O)N[C@@H](CCC(=O)NCCOCCOCC(=O)NCCOCCOCC(=O)NCCCC[C@H](NC(=O)[C@H](C)NC(=O)[C@@H](NC(=O)[C@H](Cc1ccccc1)NC(=O)[C@H](CCC(=O)O)NC(=O)[C@](C)(CCCCN)NC(=O)[C@H](C)NC(=O)[C@H](C)NC(=O)[C@H](CCC(=O)O)NC(=O)[C@H](CCCCNC(=O)COCCOCCNC(=O)COCCOCCNC(=O)CC[C@H](NC(=O)CCCCCCCCCCC)C(=O)O)NC(=O)[C@H](CCC(=O)O)NC(=O)[C@H](CC(C)C)NC(=O)[C@H](Cc1ccc(O)cc1)NC(=O)[C@H](CO)NC(=O)[C@H](CO)NC(=O)[C@H](CCCCNC(=O)COCCOCCNC(=O)COCCOCCNC(=O)CC[C@H](NC(=O)CCCCCCCCCCC)C(=O)O)NC(=O)[C@H](CC(=O)O)NC(=O)[C@H](CO)NC(=O)[C@@H](NC(=O)[C@](C)(Cc1ccccc1)NC(=O)[C@H](CO)NC(=O)CNC(=O)[C@H](CCC(=O)O)NC(=O)C(C)(C)NC(=O)[C@@H](N)Cc1c[nH]cn1)[C@@H](C)O)[C@@H](C)CC)C(=O)N[C@H](C(=O)N[C@H](C(=O)N[C@@H](CCC(=O)O)C(=O)NCC(=O)NCC(N)=O)C(C)C)C(C)C)C(=O)O [compound 455] (H-H[Aib]EGS[αMeF]TSDK([AEEA-AEEA-γGlu-Lauroyl])SSYLEK([AEEA-AEEA-γGlu-Lauroyl])EAA[αMeK]EFIAK([AEEA-AEEA-γGlu-Lauroyl])VVEGG-NH2) | 87.4 | 54.8 | 120 | 19.8 | 4910 | 6740 | 3080 | 19.8 | – | – |
| CCCCCCCCCCCC(=O)N[C@@H](CCC(=O)NCCOCCOCC(=O)NCCOCCOCC(=O)NCCCC[C@H](NC(=O)[C@H](C)NC(=O)[C@@H](NC(=O)[C@H](Cc1ccccc1)NC(=O)[C@H](CCCCNC(=O)COCCOCCNC(=O)COCCOCCNC(=O)CC[C@H](NC(=O)CCCCCCCCCCC)C(=O)O)NC(=O)[C@](C)(CCCCN)NC(=O)[C@H](C)NC(=O)[C@H](C)NC(=O)[C@H](CCC(=O)O)NC(=O)CNC(=O)[C@H](CCC(=O)O)NC(=O)[C@H](CC(C)C)NC(=O)[C@H](Cc1ccc(O)cc1)NC(=O)[C@H](CO)NC(=O)[C@H](CO)NC(=O)[C@H](CCCCNC(=O)COCCOCCNC(=O)COCCOCCNC(=O)CC[C@H](NC(=O)CCCCCCCCCCC)C(=O)O)NC(=O)[C@H](CC(=O)O)NC(=O)[C@H](CO)NC(=O)[C@@H](NC(=O)[C@](C)(Cc1ccccc1)NC(=O)[C@H](CO)NC(=O)CNC(=O)[C@H](CCC(=O)O)NC(=O)C(C)(C)NC(=O)[C@@H](N)Cc1c[nH]cn1)[C@@H](C)O)[C@@H](C)CC)C(=O)N[C@H](C(=O)N[C@H](C(=O)N[C@@H](CCC(=O)O)C(=O)NCC(=O)NCC(N)=O)C(C)C)C(C)C)C(=O)O [compound 458] (H-H[Aib]EGS[αMeF]TSDK([AEEA-AEEA-γGlu-Lauroyl])SSYLEGEAA[αMeK]K([AEEA-AEEA-γGlu-Lauroyl])FIAK([AEEA-AEEA-γGlu-Lauroyl])VVEGG-NH2; N-terminus assumed) | 41.4 | 36.3 | 46.4 | 20 | 3370 | 3070 | 3670 | 20 | – | – |
| CCCCCCCCCCCC(=O)N[C@@H](CCC(=O)NCCOCCOCC(=O)NCCOCCOCC(=O)NCCCC[C@H](NC(=O)[C@H](C)NC(=O)[C@@H](NC(=O)[C@H](Cc1ccccc1)NC(=O)[C@H](CCCCNC(=O)COCCOCCNC(=O)COCCOCCNC(=O)CC[C@H](NC(=O)CCCCCCCCCCC)C(=O)O)NC(=O)[C@](C)(CCCCN)NC(=O)[C@H](C)NC(=O)[C@H](C)NC(=O)[C@H](CCC(=O)O)NC(=O)CNC(=O)[C@H](CCC(=O)O)NC(=O)[C@H](CC(C)C)NC(=O)[C@H](CCCCNC(=O)COCCOCCNC(=O)COCCOCCNC(=O)CC[C@H](NC(=O)CCCCCCCCCCC)C(=O)O)NC(=O)[C@H](CO)NC(=O)[C@](C)(CO)NC(=O)[C@@H](NC(=O)[C@H](CC(=O)O)NC(=O)[C@H](CO)NC(=O)[C@@H](NC(=O)[C@](C)(Cc1ccccc1)NC(=O)[C@H](CO)NC(=O)CNC(=O)[C@H](CCC(=O)O)NC(=O)C(C)(C)NC(=O)[C@@H](N)Cc1c[nH]cn1)[C@@H](C)O)C(C)C)[C@@H](C)CC)C(=O)N[C@H](C(=O)N[C@H](C(=O)N[C@@H](CCC(=O)O)C(=O)NCC(=O)NCC(N)=O)C(C)C)C(C)C)C(=O)O [compound 466] (H-H[Aib]EGS[αMeF]TSDV[αMeS]SK([AEEA-AEEA-γGlu-Lauroyl])LEGEAA[αMeK]K([AEEA-AEEA-γGlu-Lauroyl])FIAK([AEEA-AEEA-γGlu-Lauroyl])VVEGG-NH2; N-terminus assumed) | 22.4 | 17.2 | 27.5 | – | 3200 | 3860 | 2550 | 20.2 | 20.2 | – |
| CCCCCCCCCCCC(=O)N[C@@H](CCC(=O)NCCOCCOCC(=O)NCCOCCOCC(=O)NCCCC[C@H](NC(=O)[C@H](C)NC(=O)[C@@H](NC(=O)[C@H](Cc1ccccc1)NC(=O)[C@H](CCC(=O)O)NC(=O)[C@](C)(CCCCN)NC(=O)[C@H](C)NC(=O)[C@H](C)NC(=O)[C@H](CCC(=O)O)NC(=O)[C@H](CCCCNC(=O)COCCOCCNC(=O)COCCOCCNC(=O)CC[C@H](NC(=O)CCCCCCCCCCC)C(=O)O)NC(=O)[C@H](CCC(=O)O)NC(=O)[C@H](CCCCNC(=O)COCCOCCNC(=O)COCCOCCNC(=O)CC[C@H](NC(=O)CCCCCCCCCCC)C(=O)O)NC(=O)[C@H](Cc1ccc(O)cc1)NC(=O)[C@H](CO)NC(=O)[C@](C)(CO)NC(=O)[C@@H](NC(=O)[C@H](CC(=O)O)NC(=O)[C@H](CO)NC(=O)[C@@H](NC(=O)[C@](C)(Cc1ccccc1)NC(=O)[C@H](CO)NC(=O)CNC(=O)[C@H](CCC(=O)O)NC(=O)C(C)(C)NC(=O)[C@@H](N)Cc1c[nH]cn1)[C@@H](C)O)C(C)C)[C@@H](C)CC)C(=O)N[C@H](C(=O)N[C@H](C(=O)N[C@@H](CCC(=O)O)C(=O)NCC(=O)NCC(N)=O)C(C)C)C(C)C)C(=O)O [compound 467] (H-H[Aib]EGS[αMeF]TSDV[αMeS]SYK([AEEA-AEEA-γGlu-Lauroyl])EK([AEEA-AEEA-γGlu-Lauroyl])EAA[αMeK]EFIAK([AEEA-AEEA-γGlu-Lauroyl])VVEGG-NH2; N-terminus assumed) | 55.4 | 49.3 | 61.5 | 19.8 | 8920 | 9920 | 7910 | – | – | 19.8 |
